Measured values reported in ChEMBL document CHEMBL1123539, “[p-[(Thienylcarbonyl)amino]phenoxy]propanolamines derivatives as diuretic and beta-adrenergic receptor blocking agents” (1986).

Columns and labels:
[1] = system: Rattus norvegicus; experiment: Compound was tested for oral salidiuretic activity (control/drug treatment value) in rats expressed in Na+, mequiv/6 hr at a dose of 16 mg/kg; 0.216/0.178; format: functional, Urine
[2] = system: Rattus norvegicus; experiment: Compound was tested for oral salidiuretic activity (control/drug treatment value) in rats expressed in Na+, mequiv/6 hr at a dose of 128 mg/kg; 0.216/0.263; format: functional, Urine
[3] = system: Rattus norvegicus; experiment: Compound was tested for oral salidiuretic activity (control/drug treatment value) in rats expressed in Na+, mequiv/6 hr at a dose of 32 mg/kg; 0.216/0.207; format: functional, Urine
[4] = system: Rattus norvegicus; experiment: Compound was tested for oral salidiuretic activity (control/drug treatment value) in rats expressed in Na+, mequiv/6 hr at a dose of 64 mg/kg; 0.216/0.097; format: functional, Urine
[5] = system: Rattus norvegicus; experiment: Compound was tested for oral salidiuretic activity (control/drug treatment value) in rats expressed as urinary output. at a dose of 128 mg/kg; 9.05/12.83; format: functional, Urine
[6] = system: Rattus norvegicus; experiment: Compound was tested for oral salidiuretic activity (control/drug treatment value) in rats expressed as urinary output. at a dose of 16 mg/kg; 9.05/9.87; format: functional, Urine
[7] = system: Rattus norvegicus; experiment: Compound was tested for oral salidiuretic activity (control/drug treatment value) in rats expressed in Na+, mequiv/6 hr at a dose of 128 mg/kg; 0.114/0.707
[8] = target: Beta-1 adrenergic receptor (Homo sapiens) (UniProt P08588); conditions: Canis lupus familiaris
Beta-1 adrenergic receptor (Homo sapiens), sequence (P08588 whole entry, looked up): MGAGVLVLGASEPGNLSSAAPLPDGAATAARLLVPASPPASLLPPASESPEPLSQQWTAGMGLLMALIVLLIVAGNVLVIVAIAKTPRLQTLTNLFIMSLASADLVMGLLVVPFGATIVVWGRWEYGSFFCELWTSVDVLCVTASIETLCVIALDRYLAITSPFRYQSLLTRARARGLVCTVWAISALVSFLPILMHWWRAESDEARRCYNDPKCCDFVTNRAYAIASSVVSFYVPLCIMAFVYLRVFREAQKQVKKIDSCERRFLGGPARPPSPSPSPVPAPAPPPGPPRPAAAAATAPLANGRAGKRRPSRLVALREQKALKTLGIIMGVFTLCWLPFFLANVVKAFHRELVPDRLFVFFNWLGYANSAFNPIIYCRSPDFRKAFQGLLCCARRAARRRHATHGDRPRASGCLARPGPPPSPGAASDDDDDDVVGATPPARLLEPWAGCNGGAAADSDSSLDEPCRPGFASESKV
Description: Compound was tested for beta-1 adrenergic receptor blocking activity in dogs

[9] = target: Beta-2 adrenergic receptor (Canis lupus familiaris) (UniProt P54833)
Beta-2 adrenergic receptor (Canis lupus familiaris), sequence (P54833 whole entry, looked up): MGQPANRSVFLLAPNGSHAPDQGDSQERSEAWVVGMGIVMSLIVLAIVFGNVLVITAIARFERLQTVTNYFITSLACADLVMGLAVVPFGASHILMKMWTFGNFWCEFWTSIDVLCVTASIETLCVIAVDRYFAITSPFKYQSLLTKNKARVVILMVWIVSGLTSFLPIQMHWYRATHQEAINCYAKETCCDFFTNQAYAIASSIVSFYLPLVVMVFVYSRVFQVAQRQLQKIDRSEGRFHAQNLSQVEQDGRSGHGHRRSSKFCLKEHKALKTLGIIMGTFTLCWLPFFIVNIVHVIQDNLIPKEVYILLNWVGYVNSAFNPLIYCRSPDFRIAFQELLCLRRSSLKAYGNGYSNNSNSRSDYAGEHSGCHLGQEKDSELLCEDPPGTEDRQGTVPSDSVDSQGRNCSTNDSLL
Description: The compound was tested for beta-2 adrenergic receptor blocking activity in dogs

[10] = system: Rattus norvegicus; experiment: Compound was tested for oral salidiuretic activity (control/drug treatment value) in rats expressed as urinary output. at a dose of 128 mg/kg; 7.70/12.75; format: functional, Urine
[11] = system: Rattus norvegicus; experiment: Compound was tested for oral salidiuretic activity (control/drug treatment value) in rats expressed as urinary output. at a dose of 128 mg/kg; 4.88/5.32; format: functional, Urine
[12] = system: Rattus norvegicus; experiment: Compound was tested for oral salidiuretic activity (control/drug treatment value) in rats expressed in Na+, mequiv/6 hr at a dose of 128 mg/kg; 0.229/0.172; format: functional, Urine
[13] = system: Rattus norvegicus; experiment: Compound was tested for oral salidiuretic activity (control/drug treatment value) in rats expressed in Na+, mequiv/6 hr at a dose of 32 mg/kg; 0.140/0.416; format: functional, Urine
[14] = system: Rattus norvegicus; experiment: Compound was tested for oral salidiuretic activity (control/drug treatment value) in rats expressed as urinary output. at a dose of 32 mg/kg; 10.33/10.75; format: functional, Urine
[15] = system: Rattus norvegicus; experiment: Compound was tested for oral salidiuretic activity (control/drug treatment value) in rats expressed in Na+, mequiv/6 hr at a dose of 128 mg/kg; 0.306/0.786; format: functional, Urine
[16] = system: Rattus norvegicus; experiment: Compound was tested for oral salidiuretic activity (control/drug treatment value) in rats expressed as urinary output. at a dose of 128 mg/kg; 6.83/10.83; format: functional, Urine
[17] = system: Rattus norvegicus; experiment: Compound was tested for oral salidiuretic activity (control/drug treatment value) in rats expressed as urinary output. at a dose of 128 mg/kg; 7.25/9.43; format: functional, Urine
[18] = system: Rattus norvegicus; experiment: Compound was tested for oral salidiuretic activity (control/drug treatment value) in rats expressed in Na+, mequiv/6 hr at a dose of 128 mg/kg; 0.112/0.407; format: functional, Urine
[19] = system: Rattus norvegicus; experiment: Compound was tested for oral salidiuretic activity (control/drug treatment value) in rats expressed in Na+, mequiv/6 hr at a dose of 14 mg/kg; 0.261/0.695; format: functional, Urine
[20] = system: Rattus norvegicus; experiment: Compound was tested for oral salidiuretic activity (control/drug treatment value) in rats expressed as urinary output. at a dose of 55 mg/kg; 7.17/9.58; format: functional, Urine
[21] = system: Rattus norvegicus; experiment: Compound was tested for oral salidiuretic activity (control/drug treatment value) in rats expressed in Na+, mequiv/6 hr at a dose of 110 mg/kg; 0.261/0.735
[22] = system: Rattus norvegicus; experiment: Compound was tested for oral salidiuretic activity (control/drug treatment value) in rats expressed in Na+, mequiv/6 hr at a dose of 110 mg/kg; 0.261/0.735; format: functional, Urine
[23] = system: Rattus norvegicus; experiment: Compound was tested for oral salidiuretic activity (control/drug treatment value) in rats expressed as urinary output. at a dose of 27 mg/kg; 7.17/9.75; format: functional, Urine
[24] = system: Rattus norvegicus; experiment: Compound was tested for oral salidiuretic activity (control/drug treatment value) in rats expressed as urinary output. at a dose of 110 mg/kg; 7.17/11.20; format: functional, Urine
[25] = system: Rattus norvegicus; experiment: Compound was tested for oral salidiuretic activity (control/drug treatment value) in rats expressed in Na+, mequiv/6 hr at a dose of 27 mg/kg; 0.261/0.742; format: functional, Urine
[26] = system: Rattus norvegicus; experiment: Compound was tested for oral salidiuretic activity (control/drug treatment value) in rats expressed as urinary output. at a dose of 14 mg/kg; 7.17/9.08; format: functional, Urine
[27] = system: Rattus norvegicus; experiment: Compound was tested for oral salidiuretic activity (control/drug treatment value) in rats expressed as urinary output. at a dose of 64 mg/kg; 10.33/12.42
[28] = system: Rattus norvegicus; experiment: Compound was tested for oral salidiuretic activity (control/drug treatment value) in rats expressed in Na+, mequiv/6 hr at a dose of 64 mg/kg; 0.140/0.606
[29] = system: Rattus norvegicus; experiment: Compound was tested for oral salidiuretic activity (control/drug treatment value) in rats expressed as urinary output. at a dose of 128 mg/kg; 7.67/14.18; format: functional, Urine
[30] = system: Rattus norvegicus; experiment: Compound was tested for oral salidiuretic activity (control/drug treatment value) in rats expressed as urinary output. at a dose of 64 mg/kg; 7.67/12.42; format: functional, Urine
[31] = system: Rattus norvegicus; experiment: Compound was tested for oral salidiuretic activity (control/drug treatment value) in rats expressed in Na+, mequiv/6 hr at a dose of 64 mg/kg; 0.181/0.512; format: functional, Urine
[32] = system: Rattus norvegicus; experiment: Compound was tested for oral salidiuretic activity (control/drug treatment value) in rats expressed as urinary output. at a dose of 32 mg/kg; 7.67/10; format: functional, Urine
[33] = system: Rattus norvegicus; experiment: Compound was tested for oral salidiuretic activity (control/drug treatment value) in rats expressed in Na+, mequiv/6 hr at a dose of 16 mg/kg; 0.181/0.242; format: functional, Urine
[34] = system: Rattus norvegicus; experiment: Compound was tested for oral salidiuretic activity (control/drug treatment value) in rats expressed as urinary output. at a dose of 16 mg/kg; 7.67/8.78; format: functional, Urine
[35] = system: Rattus norvegicus; experiment: Compound was tested for oral salidiuretic activity (control/drug treatment value) in rats expressed in Na+, mequiv/6 hr at a dose of 32 mg/kg; 0.181/0.230; format: functional, Urine
[36] = system: Rattus norvegicus; experiment: Compound was tested for oral salidiuretic activity (control/drug treatment value) in rats expressed in Na+, mequiv/6 hr at a dose of 128 mg/kg; 0.181/0.607; format: functional, Urine

Question: Which Activity [1] does the source give for `CC(C)NCC(O)COc1cccc2ccccc12` (stereo not drawn) [PROPRANOLOL] here?
Answer: The Activity was 0.216.

Question: And the Activity [2]?
Answer: The Activity was 0.216.

Question: What about the Activity [3] of the same molecule?
Answer: The Activity was 0.216.

Question: And the Activity [4]?
Answer: Its Activity is 0.216.

Question: And the Activity [5]?
Answer: Its Activity is 9.05 mL.

Question: And the Activity [6]?
Answer: Its Activity is 9.05 mL.

Question: For `CC(C)NCC(O)COc1ccc(NC(=O)c2cccs2)cc1` (stereo not drawn), which Activity [7] is on record?
Answer: The Activity was 0.114.

Question: And the ID50 [8]?
Answer: The ID50 was 0.045 mg/kg.

Question: And the ID50 [9]?
Answer: Its ID50 is over 1 mg/kg.

Question: What about the treated urinary output [10] of the same molecule?
Answer: Its treated urinary output is 12.8 mL.

Question: For `CC(C)(C)NCC(O)COc1ccc(NC(=O)c2cccs2)cc1C(=O)O` (stereo not drawn), which treated urinary output [11] is on record?
Answer: The treated urinary output was 5.32 mL.

Question: And the Activity [12]?
Answer: Its Activity is 0.229.

Question: And the ID50 [8]?
Answer: Its ID50 is over 8 mg/kg.

Question: What about the ID50 [9] of the same molecule?
Answer: The ID50 was over 8 mg/kg.

Question: How did the Activity [13] turn out when `Cc1cc(NC(=O)c2cccs2)ccc1OCC(O)CNC(C)(C)C` (stereo not drawn) was run?
Answer: The Activity was 0.14.

Question: And the ID50 [8]?
Answer: Its ID50 is 0.03 mg/kg.

Question: And the Activity [14]?
Answer: The Activity was 10.33 mL.

Question: What about the ID50 [9] of the same molecule?
Answer: Its ID50 is over 1 mg/kg.

Question: What does the source list for `COC(=O)c1cc(NC(=O)c2cccs2)ccc1OCC(O)CNC(C)(C)C` (stereo not drawn)?
Answer: Activity [15]: 0.306; ID50 [8]: 0.042 mg/kg; ID50 [9]: > 1 mg/kg; Activity [16]: 6.83 mL

Question: Which Activity [17] does the source give for `CC(C)NCC(O)COc1ccc(NC(=O)c2cccs2)cc1C(=O)OC(C)C` (stereo not drawn) here?
Answer: The Activity was 7.25 mL.

Question: And the ID50 [8]?
Answer: Its ID50 is 0.17 mg/kg.

Question: What about the Activity [18] of the same molecule?
Answer: The Activity was 0.112.

Question: What about the ID50 [9] of the same molecule?
Answer: Its ID50 is 0.25 mg/kg.

Question: How did the Activity [19] turn out when `NS(=O)(=O)c1cc2c(cc1Cl)NCNS2(=O)=O` [HYDROCHLOROTHIAZIDE] was run?
Answer: Its Activity is 0.261.

Question: What about the treated urinary output [20] of the same molecule?
Answer: Its treated urinary output is 9.58 mL.

Question: What about the Activity [21] of the same molecule?
Answer: The Activity was 0.261.

Question: What about the Activity [22] of the same molecule?
Answer: The Activity was 0.261.

Question: And the Activity [23]?
Answer: The Activity was 7.17 mL.

Question: And the treated urinary output [24]?
Answer: Its treated urinary output is 11.2 mL.

Question: What about the Activity [25] of the same molecule?
Answer: The Activity was 0.261.

Question: What about the Activity [26] of the same molecule?
Answer: Its Activity is 7.17 mL.

Question: For `Cc1cc(NC(=O)c2cccs2)ccc1OCC(O)CNC(C)C` (stereo not drawn), which Activity [27] is on record?
Answer: Its Activity is 10.33 mL.

Question: What about the ID50 [8] of the same molecule?
Answer: Its ID50 is 0.02 mg/kg.

Question: What about the ID50 [9] of the same molecule?
Answer: Its ID50 is over 1 mg/kg.

Question: And the Activity [28]?
Answer: The Activity was 0.14.

Question: For `CC(C)(C)NCC(O)COc1ccc(NC(=O)c2cccs2)cc1` (stereo not drawn), which Activity [29] is on record?
Answer: Its Activity is 7.67 mL.

Question: What about the Activity [30] of the same molecule?
Answer: The Activity was 7.67 mL.

Question: And the Activity [31]?
Answer: The Activity was 0.181.

Question: What about the treated urinary output [32] of the same molecule?
Answer: The treated urinary output was 10 mL.

Question: What about the Activity [33] of the same molecule?
Answer: The Activity was 0.181.

Question: What about the Activity [34] of the same molecule?
Answer: The Activity was 7.67 mL.

Question: What about the ID50 [8] of the same molecule?
Answer: The ID50 was 0.075 mg/kg.

Question: What about the Activity [35] of the same molecule?
Answer: Its Activity is 0.181.

Question: And the ID50 [9]?
Answer: The ID50 was over 1 mg/kg.

Question: What about the Activity [36] of the same molecule?
Answer: Its Activity is 0.181.
